# Source: paper doi:10.1101/2020.03.06.976563v1 (biorxiv, 2020)
# Like-named read-outs stand apart in the source and are kept apart here.
# Key:
# [1] = target: T1, cyclin G associated kinase (GAK), kinase domain (Homo sapiens, UniProt O14976); assay: biochemical
# T1 sequence (O14976 12-347 limits assumed): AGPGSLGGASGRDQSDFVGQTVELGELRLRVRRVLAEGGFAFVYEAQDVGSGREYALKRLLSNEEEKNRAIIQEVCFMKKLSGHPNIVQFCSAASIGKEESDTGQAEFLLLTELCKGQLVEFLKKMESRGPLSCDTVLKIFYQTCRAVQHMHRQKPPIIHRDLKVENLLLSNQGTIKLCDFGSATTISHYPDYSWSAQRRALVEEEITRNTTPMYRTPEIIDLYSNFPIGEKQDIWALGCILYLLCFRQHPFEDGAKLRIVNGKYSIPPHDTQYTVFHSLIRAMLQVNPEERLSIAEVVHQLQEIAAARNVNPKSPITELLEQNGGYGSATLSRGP
# AAK1 [2] = target: T2, AAK1 (Homo sapiens, UniProt Q2M2I8); assay: biochemical
# BMP2K [3] = target: T3, BMP2K (Homo sapiens, UniProt Q9NSY1); assay: biochemical
# STK16 [4] = target: T4, STK16 (Homo sapiens, UniProt O75716); assay: biochemical
# [5] = target: T1, cyclin G associated kinase (GAK), kinase domain; assay: TR-FRET ligand binding displacement assay, 16-point dose response
# [6] = target: T1, cyclin G associated kinase (GAK), kinase domain; assay: biochemical; remark: listed apart in the source
# AAK1 [7] = target: T2, AAK1; assay: biochemical; remark: listed apart in the source
# BMP2K [8] = target: T3, BMP2K; assay: biochemical; remark: listed apart in the source
# STK16 [9] = target: T4, STK16; assay: biochemical; remark: listed apart in the source
# T4 sequence (O75716 whole entry, the tested form may be a part): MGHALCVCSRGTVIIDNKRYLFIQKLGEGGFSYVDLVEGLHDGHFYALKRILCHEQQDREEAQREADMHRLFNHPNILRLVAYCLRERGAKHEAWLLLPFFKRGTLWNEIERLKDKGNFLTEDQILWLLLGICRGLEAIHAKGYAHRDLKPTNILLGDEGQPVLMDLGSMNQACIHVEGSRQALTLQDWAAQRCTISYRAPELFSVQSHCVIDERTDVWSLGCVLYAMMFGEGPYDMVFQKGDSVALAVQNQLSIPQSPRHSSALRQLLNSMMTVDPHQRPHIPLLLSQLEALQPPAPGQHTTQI
# T2 sequence (Q2M2I8 whole entry): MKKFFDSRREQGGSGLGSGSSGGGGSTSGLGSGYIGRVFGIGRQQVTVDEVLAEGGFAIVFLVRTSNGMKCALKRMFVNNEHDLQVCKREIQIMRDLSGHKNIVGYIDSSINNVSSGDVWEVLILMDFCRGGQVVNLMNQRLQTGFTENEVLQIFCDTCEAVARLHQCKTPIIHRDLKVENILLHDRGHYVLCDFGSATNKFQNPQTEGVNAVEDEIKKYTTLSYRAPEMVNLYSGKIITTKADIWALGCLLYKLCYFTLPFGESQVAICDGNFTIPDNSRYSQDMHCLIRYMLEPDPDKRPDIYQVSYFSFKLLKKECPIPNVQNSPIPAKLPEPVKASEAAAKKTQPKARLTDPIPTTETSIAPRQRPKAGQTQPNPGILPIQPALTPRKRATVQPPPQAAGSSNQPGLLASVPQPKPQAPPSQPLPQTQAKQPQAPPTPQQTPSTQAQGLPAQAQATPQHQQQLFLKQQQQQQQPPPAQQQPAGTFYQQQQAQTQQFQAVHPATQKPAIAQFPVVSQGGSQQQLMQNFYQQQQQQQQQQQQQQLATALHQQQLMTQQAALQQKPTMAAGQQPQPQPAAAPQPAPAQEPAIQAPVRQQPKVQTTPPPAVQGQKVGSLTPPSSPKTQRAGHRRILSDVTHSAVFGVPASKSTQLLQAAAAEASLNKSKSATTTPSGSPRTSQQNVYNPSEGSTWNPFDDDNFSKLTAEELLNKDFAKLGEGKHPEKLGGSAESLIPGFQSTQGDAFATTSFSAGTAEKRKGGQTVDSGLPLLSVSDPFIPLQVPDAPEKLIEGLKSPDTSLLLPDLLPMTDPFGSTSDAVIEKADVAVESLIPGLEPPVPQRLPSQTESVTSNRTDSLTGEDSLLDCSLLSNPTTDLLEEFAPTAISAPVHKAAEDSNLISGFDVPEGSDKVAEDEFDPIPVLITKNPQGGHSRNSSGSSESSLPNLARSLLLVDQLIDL
# T3 sequence (Q9NSY1 whole entry): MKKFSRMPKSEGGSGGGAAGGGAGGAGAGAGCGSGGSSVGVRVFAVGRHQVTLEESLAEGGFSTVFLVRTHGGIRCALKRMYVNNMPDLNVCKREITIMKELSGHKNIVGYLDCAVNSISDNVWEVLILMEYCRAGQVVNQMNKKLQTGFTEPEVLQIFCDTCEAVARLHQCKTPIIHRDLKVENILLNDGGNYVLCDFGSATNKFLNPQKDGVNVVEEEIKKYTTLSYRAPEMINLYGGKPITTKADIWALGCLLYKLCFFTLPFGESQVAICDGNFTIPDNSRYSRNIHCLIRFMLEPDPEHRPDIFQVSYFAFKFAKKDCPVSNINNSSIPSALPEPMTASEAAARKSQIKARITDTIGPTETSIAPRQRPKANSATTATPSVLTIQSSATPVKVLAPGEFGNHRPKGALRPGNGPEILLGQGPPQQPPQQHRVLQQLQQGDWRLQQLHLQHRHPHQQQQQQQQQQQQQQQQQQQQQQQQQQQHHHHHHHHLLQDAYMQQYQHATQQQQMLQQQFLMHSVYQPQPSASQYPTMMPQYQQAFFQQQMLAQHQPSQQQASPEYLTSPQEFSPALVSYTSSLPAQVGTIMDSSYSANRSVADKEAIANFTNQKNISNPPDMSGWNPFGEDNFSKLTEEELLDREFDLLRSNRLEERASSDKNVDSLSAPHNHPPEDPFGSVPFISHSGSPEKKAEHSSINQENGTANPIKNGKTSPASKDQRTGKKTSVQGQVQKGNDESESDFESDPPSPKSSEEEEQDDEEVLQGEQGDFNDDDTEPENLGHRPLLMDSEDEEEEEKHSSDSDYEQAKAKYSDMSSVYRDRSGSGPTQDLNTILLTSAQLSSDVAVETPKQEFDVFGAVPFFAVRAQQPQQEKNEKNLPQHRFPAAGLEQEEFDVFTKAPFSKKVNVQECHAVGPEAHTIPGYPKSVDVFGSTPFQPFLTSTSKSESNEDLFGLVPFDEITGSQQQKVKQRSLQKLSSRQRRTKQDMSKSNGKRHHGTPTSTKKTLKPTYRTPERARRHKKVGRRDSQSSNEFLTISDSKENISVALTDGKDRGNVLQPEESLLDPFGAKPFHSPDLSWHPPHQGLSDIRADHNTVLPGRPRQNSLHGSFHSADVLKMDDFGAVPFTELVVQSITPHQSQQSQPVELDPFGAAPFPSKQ
Ki [1] [µM],Ki (AAK1 [2]) [µM],Ki (BMP2K [3]) [µM],Ki (STK16 [4]) [µM],Ki [5] [µM],Ki [6] [µM],Ki (AAK1 [7]) [µM],Ki (BMP2K [8]) [µM],Ki (STK16 [9]) [µM],SMILES
0.0047,2.6,5.8,3,–,–,–,–,–,"Oc1cccc(Nc2ccnc3ccc(C(F)(F)F)cc23)c1 [compound 5, 3-((6-(trifluoromethyl)quinolin-4-yl)amino)phenol]"
0.21,> 100,> 100,> 100,–,–,–,–,–,"O=[N+]([O-])c1cccc(Nc2ccnc3ccc(C(F)(F)F)cc23)c1 [compound 6, N-(3-nitrophenyl)-6-(trifluoromethyl)quinolin-4-amine]"
–,> 100,> 100,13,0.65,–,–,–,–,"CN(C)c1cccc(Nc2ccnc3ccc(C(F)(F)F)cc23)c1 [compound 8, ^1N,^1N-dimethyl-3-N-[6-(trifluoromethyl)quinolin-4-yl]benzene-1,3-diamine]"
0.97,29,> 100,> 100,–,–,–,–,–,"CN(C)c1cccc(Nc2ccnc3ccccc23)c1 [compound 10, N1 ,N1-dimethyl-N3-(quinolin-4-yl)benzene-1,3-diamine]"
0.06,10,15,20,–,–,–,–,–,"OCc1cccc(Nc2ccnc3ccc(C(F)(F)F)cc23)c1 [compound 11, (3-{[6-(trifluoromethyl)quinolin-4-yl]amino}phenyl)methanol]"
0.041,8.5,16,5,–,–,–,–,–,"OCc1ccccc1Nc1ccnc2ccc(C(F)(F)F)cc12 [compound 12, (2-{[6-(trifluoromethyl)quinolin-4-yl]amino}phenyl)methanol]"
–,–,–,–,–,0.0029,3,7,32,"COc1cccc(Nc2ccnc3ccc(Br)cc23)c1 [compound 13, 6-bromo-N-(3-methoxyphenyl)quinolin-4-amine]"
–,–,–,–,–,0.0012,0.5,2,5.7,"Oc1cccc(Nc2ccnc3ccc(Br)cc23)c1 [compound 14, 3-((6-bromoquinolin-4-yl)amino)phenol]"
0.027,25,> 100,> 100,–,–,–,–,–,"COc1cccc(Nc2ccnc3ccccc23)c1 [compound 15, N-(3-methoxyphenyl)quinolin-4-amine]"
0.012,6.6,30,> 100,–,–,–,–,–,"Oc1cccc(Nc2ccnc3ccccc23)c1 [compound 16, 3-(quinolin-4-ylamino)phenol]"
0.0079,9.1,26,> 100,–,–,–,–,–,"COc1cccc(Nc2ccnc3ccc(OC)cc23)c1 [compound 17, 6-methoxy-N-(3-methoxyphenyl)quinolin-4-amine]"
0.0057,1.6,7.3,27,–,–,–,–,–,"COc1ccc2nccc(Nc3cccc(O)c3)c2c1 [compound 18, 3-((6-methoxyquinolin-4-yl)amino)phenol]"
0.03,23,19,> 100,–,–,–,–,–,"COc1cccc(Nc2ccnc3ccc(S(C)(=O)=O)cc23)c1 [compound 19, 6-methanesulfonyl-N-(3-methoxyphenyl)quinolin-4-amine]"
–,–,–,–,–,0.056,40,> 100,> 100,"O=[N+]([O-])c1cccc(Nc2ccnc3ccc(Br)cc23)c1 [compound 21, 6-bromo-N-(3-nitrophenyl)quinolin-4-amine]"
–,–,–,–,–,0.035,5.2,12,10,"Brc1ccc2nccc(Nc3ccc4c(c3)OCO4)c2c1 [compound 25, N-(2H-1,3-benzodioxol-5-yl)-6-bromoquinolin-4-amine]"
–,–,–,–,–,–,> 100,> 100,> 100,"Brc1ccc2nccc(Nc3cccc4c3OCO4)c2c1 [compound 27, N-(Benzo[d][1,3]dioxol-4-yl)-6-bromoquinolin-4-amine]"
–,–,–,–,–,0.011,0.39,1.3,5.5,"COc1cccc(Nc2ncnc3ccc(Br)cc23)c1 [compound 29, 6-bromo-N-(3-methoxyphenyl)quinazolin-4-amine]"
–,–,–,–,–,4.9,> 100,> 100,> 100,"FS(F)(F)(F)(F)c1cccc(Nc2ccnc3ccc(Br)cc23)c1 [compound 32, 6-bromo-N-(3-(pentafluoro-λ^6-sulfaneyl)phenyl)quinolin-4-amine]"
–,–,–,–,–,2.6,> 100,> 100,> 100,"CC(C)(C)c1cccc(Nc2ccnc3ccc(Br)cc23)c1 [compound 34, 6-bromo-N-(3-tert-butylphenyl)quinolin-4-amine]"

SMILES,Ki [1] [µM],Ki (AAK1 [2]) [µM],Ki (BMP2K [3]) [µM],Ki (STK16 [4]) [µM],Ki [5] [µM],Ki [6] [µM],Ki (AAK1 [7]) [µM],Ki (BMP2K [8]) [µM],Ki (STK16 [9]) [µM]
"CC(C)(C)Oc1cccc(Nc2ccnc3ccc(Br)cc23)c1 [compound 33, 6-bromo-N-[3-(tert-butoxy)phenyl]quinolin-4-amine]",–,–,–,–,–,2.2,15,> 100,12
